pIC50: −log10 of the molar value. In brackets after ≈: the same amount, converted by molar mass.
Tests used:
[1] = target: T1, glucose-6-phosphate translocase (Rattus norvegicus, UniProt F7EWB7); test: G6Pase activity assay in intact male rat liver microsomes (colorimetric inorganic phosphate); format: biochemical; details: for Inhibition of G6Pase activity of the microsome (Figure 7B): 1 mM glucose-6-phosphate; for Inhibition of G6Pase activity: 10–50 μM range
T1 construct: using intact male rat liver microsomes; tissue BD Gentest (Becton Dickinson); host or cells: male Sprague Dawley rat liver microsomes
T1 sequence (F7EWB7 1-429): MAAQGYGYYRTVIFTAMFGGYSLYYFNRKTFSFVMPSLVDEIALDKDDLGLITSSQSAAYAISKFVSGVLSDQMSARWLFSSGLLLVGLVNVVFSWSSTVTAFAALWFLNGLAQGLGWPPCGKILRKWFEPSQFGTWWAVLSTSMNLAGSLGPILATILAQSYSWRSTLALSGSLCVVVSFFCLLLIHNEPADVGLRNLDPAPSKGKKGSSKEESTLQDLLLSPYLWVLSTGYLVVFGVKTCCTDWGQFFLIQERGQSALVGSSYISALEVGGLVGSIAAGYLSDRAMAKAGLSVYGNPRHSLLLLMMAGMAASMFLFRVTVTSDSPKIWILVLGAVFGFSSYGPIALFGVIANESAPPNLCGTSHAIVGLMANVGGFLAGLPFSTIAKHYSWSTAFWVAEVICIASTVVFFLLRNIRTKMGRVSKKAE
Method: Recently, the natural product mumbaistatin (Figure 7A) was identified as an extremely potent inhibitor (IC50 = 5 nM) of the glucose-6-phosphate translocase enzyme complex, an attractive target for the treatment of Type II diabetes ([Vertesy et al. 2001]). The core of mumbaistatin consists of an anthraquinone moiety that is related to several engineered compounds discussed in this report. For example, the carboxylic acid at position C-1 and the reduced C-9 are identical to those present in compounds DMAC, 8, and 9. We tested the inhibitory activities of some of these polyketides against glucose-6-phosphate translocase using intact male rat liver microsomes.
The integrity of the microsomes was first verified by comparing the glucose-6-phosphatase (G6Pase) activity in the presence of either glucose-6-phosphate or mannose-6-phosphate.
Male rat liver microsome (Sprague Dawley) was purchased from BD Gentest^TM (Becton Dickinson, Franklin Lakes, New Jersey, United States). Aliquots (100 μl, 2 mg/ml) in 0.25 M sucrose were stored at –80°C. Compound stock solutions were prepared in 95% ethanol and diluted with DMSO. Glucose-6-phosphate and mannose-6-phosphate were purchased from Sigma (St. Louis, Missouri, United States).
The integrity of microsomes and G6Pase activity was measured based on the colorimetric reaction of inorganic phosphate as previously reported ([Arion 1989]). The enzyme reaction was initiated by adding 3 μl of microsome to the reaction mixture, which contained 51 μl of assay buffer (50 mM HEPES, 100 mM KCl, 2.5 mM EDTA, 2.5 mM MgCl2, and 1 mM DTT at pH 7.2), 3 μl of glucose-6-phosphate (final concentration, 1 mM), and 3 μl of inhibitor sample in DMSO. The reaction mixture was incubated at room temperature, and 13 μl of reaction mixture was taken every 10 min and quenched with 117 μl of working solution (6:2:1 mixture of 0.42% ammonium molybdate tetrahydrate in 1N H2SO4, 10% SDS in water, and 10% ascorbic acid in water). The blue reduced phosphomolybdate complex is formed after incubation at 50°C for 20 min. The absorbance was measured at 820 nm.

[2] = test system: human mammary adenocarcinoma MCF-7 cells; set-up: method as in Hori et al. 1993; details: ref Hori et al. 1993; cited from earlier work
[3] = test system: human mammary adenocarcinoma MCF-7 cells; test: Cytotoxicity against MCF-7 cells (colorimetric MTT assay); format: cell-based; details: MCF7, 120 h, IC50 recorded after 5 d of drug addition, read-out: IC50, cytotoxic activity against MCF-7 cells
Method: As described above, the biosynthetic engineering methods reported here have yielded practical routes for the production of several new as well as known anthraquinone compounds. Given the track record of this family of natural products as pharmacologically active molecules, compounds 3, 4, 9, and DMAC were assayed for cytotoxic activities against human mammary adenocarcinoma MCF-7 cells. Apoptosis was observed after 24 h of drug treatment, and IC50 values were recorded after 5 d of drug addition. […] Thus inserting the hydroxyl group at C-9 results in a 10-fold increase in cytotoxic activity.
The studies were performed as described by Hori et al (1993). The cells were maintained at 37°C and growth was measured with the colorimetric MTT assay after each day. The IC50 values were measured after 5 d.

[4] = Stability of purified compounds at room temperature; format: physicochemical
[5] = target: T1, glucose-6-phosphate translocase; details: rat liver microsomes; reference inhibitor, source not given; read-out: IC50, chlorogenic acid used as reference in the G6Pase assay; cited from earlier work
[6] = target: glucose-6-phosphate translocase enzyme complex; set-up: method as in Vertesy et al. 2001; details: ref Vertesy et al. 2001; cited from earlier work

Cc1c(C(=O)O)c(O)cc2c1C(=O)c1c(O)cc(O)cc1C2=O [Compound 7, 3,6,8-trihydroxy-1-methylanthraquinone-2-carboxylic acid]
Inhibition of G6Pase activity of the microsome (Figure 7B) [1]: No inhibition | Inhibition of G6Pase activity [1]: not

CC(C)CCc1cc(O)cc2c1C(=O)c1c(O)cc(O)cc1C2=O [Compound 6, R1128c]
IC50, cytotoxic activity against MCF-7 cells (natural products) [2]: 6.2 µg/mL (≈ 19 µM)

Cc1c(C(=O)O)c(O)cc2c1C(=O)c1c(O)cccc1C2=O [DMAC, 3,8-dihydroxy-methylanthraquinone carboxylic acid, reference compound]
IC50 [3]: 26.9 µg/mL (≈ 90.2 µM) | Inhibition of G6Pase activity of the microsome (Figure 7B) [1]: No inhibition | Inhibition of G6Pase activity [1]: not

CCCCc1c(C(=O)O)c(O)cc2c1C(=O)c1c(O)cc(O)cc1C2=O [Compound 3]
IC50 [3]: 3.4 µg/mL (≈ 9.54 µM) | Inhibition of G6Pase activity of the microsome (Figure 7B) [1]: Dose-dependent inhibition | Inhibition of G6Pase activity [1]: Dose-dependent inhibition

CC(C)CCc1c(C(=O)O)c(O)cc2c1C(=O)c1c(O)cccc1C2=O [Compound 9]
IC50 [3]: 21.7 µg/mL (≈ 61.2 µM) | Inhibition of G6Pase activity of the microsome (Figure 7B) [1]: Dose-dependent inhibition | Inhibition of G6Pase activity [1]: Dose-dependent inhibition

CCCCc1c(C(=O)O)c(O)cc2c1C(=O)c1c(O)cccc1C2=O [Compound 8]
Inhibition of G6Pase activity of the microsome (Figure 7B) [1]: Dose-dependent inhibition | Inhibition of G6Pase activity [1]: Dose-dependent inhibition

CCCCC1=C(c2cc(O)cc(=O)o2)C(=O)CC(O)C1 (stereo not shown) [Compound 1]
Stability of the purified compound [4]: slowly dehydrate

CC(C)CCC1=C(c2cc(O)cc(=O)o2)C(=O)CC(O)C1 (stereo not shown) [Compound 2]
Stability of the purified compound [4]: slowly dehydrate

CCCCc1cc(O)cc2c1C(=O)c1c(O)cc(O)cc1C2=O [Compound 5, R1128b]
IC50, cytotoxic activity against MCF-7 cells (natural products) [2]: 9.5 µg/mL (≈ 30.4 µM)

O=C(/C=C/c1ccc(O)c(O)c1)O[C@@H]1C[C@](O)(C(=O)O)C[C@@H](O)[C@H]1O [chlorogenic acid]
pIC50 [5]: 3.59

CC(C)CCc1c(C(=O)O)c(O)cc2c1C(=O)c1c(O)cc(O)cc1C2=O [Compound 4]
IC50 [3]: 1.7 µg/mL (≈ 4.59 µM) | Inhibition of G6Pase activity of the microsome (Figure 7B) [1]: Dose-dependent inhibition | Inhibition of G6Pase activity [1]: Dose-dependent inhibition

O=C(O)CC(O)CCC(=O)c1cccc(O)c1C(=O)c1c(C(=O)O)c(O)cc2c1C(=O)c1c(O)cccc1C2=O (stereo not shown) [mumbaistatin]
pIC50 [6]: 8.30

— publication PMC340942, “Engineered Biosynthesis of Regioselectively Modified Aromatic Polyketides Using Bimodular Polyketide Synthases” (PLoS Biology, 2004)
